# Patent US10131691B2, “Compositions and methods for specific regulation of pyruvate dehydrogenase kinase” (THE BOARD OF TRUSTEES OF THE LELAND STANFORD JUNIOR …, priority 2011, dated 2018)
# No end group written: not given here.
# Experiments:
# [1] = system: hearts subjected to I/R; assay: Ex vivo cardiac protection from ischemia/reperfusion (Langendorff; infarct size, CPK release); parameters: species or system rat; conditions: for cardioprotection / biological activity in ex vivo I/R model (in words): CPK release and JNK phosphorylation as markers; for CPK (u/L) / protection from I/R injury: ex vivo I/R; for CPK (u/L): release into perfusate, 1 μM peptide; for protection from I/R injury: n=6
# Experimental: An ex vivo model of acute ischemic heart damage was used, which involves a 30 min equilibration period, followed by 30 min of global ischemia, which in turn is followed by 60 min of reperfusion. The hearts were perfused with 1 μM TAT or TAT-conjugated peptide. Normoxic control hearts were subjected to 90 min perfusion in the absence of ischemia. Coronary effluent was collected to determine creatine phosphokinase (CPK) release during the first 30 min of the reperfusion period. At the end of the reperfusion period, hearts were sliced into 1-mm-thick transverse sections and incubated in triphenyltetrazolium chloride solution (TTC, 1% in phosphate buffer, pH 7.4) at 37° C. for 15 min. Infarct size was expressed as a percentage of the risk zone (equivalent to total LV muscle mass) (methods described in Brandman et al., 2007, J. Biol. Chem., 282:4113-4123; Inagaki et al., 2003, Circulation, 108:869-875). […]
# (§1) First, I/R-induced infarct size after treatment with ΨPDK or δV1-1 (Inagaki et al., 2003, Circulation, 108:869-875), was smaller than that in hearts treated with the control peptide or with ΨδRACK, the δPKC-specific activator or with δV1-5 (FIG. 6A). Second, similar data were obtained when determining the levels of released creatine phosphokinase (CPK), as a marker of myocardial infarction; CPK levels in the ΨPDK- or δV1-1-treated hearts were similar and were lower than those after treatment with control peptide, ΨδRACK or δV1-5 (FIG. 6B).
# (§2) To begin determining the contribution of each of the amino acids on the effect of the peptide, Alanine scanning was used (Brunel et al., 2006, J. Virol., 80:1680-1687; Chen et al., J. Pep. Res., 2000, 56:147-156; Brems et al., 1992, Prot. Eng., 5:527-533) (substituting individual amino acid with an alanine). The resultant ΨPDK peptide analogs were then used in the same model of myocardial infarction, using CPK release and JNK phosphorylation as markers for cardiac injury. CPI release into the perfusates and pJNK in the hearts were determined after I/R in the presence of respective peptides and compared to the levels in hearts subjected to I/R in the presence of the control peptide. None of the peptides having a substitution had any significant biological activity (Table 1).
# [2] = system: JNK; assay: JNK phosphorylation in hearts subjected to I/R (Western blot); parameters: species or system rat; conditions: ex vivo I/R hearts, 1 μM peptide
# Experimental: An ex vivo model of acute ischemic heart damage was used, which involves a 30 min equilibration period, followed by 30 min of global ischemia, which in turn is followed by 60 min of reperfusion. The hearts were perfused with 1 μM TAT or TAT-conjugated peptide. Normoxic control hearts were subjected to 90 min perfusion in the absence of ischemia. Coronary effluent was collected to determine creatine phosphokinase (CPK) release during the first 30 min of the reperfusion period. At the end of the reperfusion period, hearts were sliced into 1-mm-thick transverse sections and incubated in triphenyltetrazolium chloride solution (TTC, 1% in phosphate buffer, pH 7.4) at 37° C. for 15 min. Infarct size was expressed as a percentage of the risk zone (equivalent to total LV muscle mass) (methods described in Brandman et al., 2007, J. Biol. Chem., 282:4113-4123; Inagaki et al., 2003, Circulation, 108:869-875).
# Rat hearts were homogenized in a buffer containing 210 mM mannitol, 70 mM sucrose, 5 mM MOPS and 1 mM EDTA followed by isolation of the mitochondria fraction (described in Churchill et al., 2008, J. Mol. Cell. Cardiol., 46:278-284) and identified by the presence of VDAC (MitoSciences, Eugene, Oreg., USA). The level of phosphorylated and unphosphorylated JNK1/2 was analyzed in the total fraction using respective specific antibodies (Cell Signaling, Danvers, Mass. and Santa Cruz Biotechnology, CA, USA).
# as §1, §2
# [3] = target: T1, δPKC (Mus musculus, UniProt P28867); assay: MARCKS phosphorylation in wild-type fibroblasts (Western blot); format: cell-based; conditions: 20% serum, peptides conjugated to TAT47-57, relative to control peptide
# T1 construct: endogenous in cells; host or cells: primary fibroblasts from wild-type mice
# T1 sequence (P28867 whole entry): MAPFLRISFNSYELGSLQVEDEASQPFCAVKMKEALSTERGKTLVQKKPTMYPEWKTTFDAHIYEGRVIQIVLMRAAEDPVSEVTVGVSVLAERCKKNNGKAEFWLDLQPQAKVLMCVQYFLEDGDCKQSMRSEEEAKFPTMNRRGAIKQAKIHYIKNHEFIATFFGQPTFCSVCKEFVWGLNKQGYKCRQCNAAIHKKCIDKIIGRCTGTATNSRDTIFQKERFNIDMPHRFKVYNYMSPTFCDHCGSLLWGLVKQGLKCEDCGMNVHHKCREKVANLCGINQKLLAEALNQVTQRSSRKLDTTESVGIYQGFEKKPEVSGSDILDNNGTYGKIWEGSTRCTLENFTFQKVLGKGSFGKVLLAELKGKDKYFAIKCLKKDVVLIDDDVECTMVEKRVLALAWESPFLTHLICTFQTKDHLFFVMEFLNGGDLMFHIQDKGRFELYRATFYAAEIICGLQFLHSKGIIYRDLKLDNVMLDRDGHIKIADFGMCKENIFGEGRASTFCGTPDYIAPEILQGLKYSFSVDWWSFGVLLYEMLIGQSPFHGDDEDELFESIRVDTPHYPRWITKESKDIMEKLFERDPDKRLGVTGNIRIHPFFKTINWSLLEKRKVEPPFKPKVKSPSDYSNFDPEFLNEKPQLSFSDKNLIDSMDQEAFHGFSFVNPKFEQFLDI
# Description: (§3) Fibroblasts were isolated from wild-type or δPKC knockout mice (provided by Dr. Robert Messing, Gallo Center, UCSF) as previously described (Disatnik et al., 2004, J. Cell Sci., 117:4469-4479) and maintained in 20% fetal bovine serum.
# (§4) Phosphorylation of myristoylated alanine-rich C kinase substrate (MARCKS), a ubiquitous PKC substrate, was monitored by Western blot of total cell lysates, using anti-phosphorylated MARCKS (Cell Signaling, Danvers, Mass.). Anti-MARCKS and anti-δPKC antibodies were obtained from Santa Cruz Biotechnology (Santa Cruz Biotechnology, CA, USA).
# (§5) The ΨPDK sequence is found both in PDK and in the PDK-cognate protein, δPKC. It was therefore predicted that ΨPDK mimics inhibitory intra-molecular interaction, and, similar to ΨδRACK, ΨPDK should compete with the inhibitory interaction of PDK and δPKC, and increase δPKC-mediated functions (FIG. 1A). Phosphorylation of myristoylated alanine-rich C-kinase substrate (MARCKS) was used as a marker of PKC activity (Disatnik et al., 2004, J. Cell. Sci., 117:4469-4479). […] To determine the selectivity of the peptides for δPKC, fibroblasts derived from δPKC knock-out mice were also used.
# [4] = system: fibroblasts derived from δPKC knock-out mice; assay: MARCKS phosphorylation in fibroblasts from δPKC knock-out mice; format: cell-based, mouse; conditions: fibroblasts lacking δPKC
# Description: as §3, §4, §5
Molecule,CPK (u/L) [1] [u/L],p-JNK/total JNK [2],further results
ALS(p)T(p)ER [p199],842 ± 258,0.6 ± 0.02,"cardioprotection / biological activity in ex vivo I/R model (in words) [1]: None of the phosphorylated peptides (p197, 198, 199) affected cardioprotection"
ALATER [p193],1155 ± 299,0.7 ± 0.03,
"CCCCCCCCCCCCCC(=O)O[C@@H]1[C@@H](C)[C@@]2(O)[C@@H](C=C(CO)C[C@]3(O)C(=O)C(C)=C[C@@H]23)[C@@H]2C(C)(C)[C@]12OC(C)=O [PMA, Phorbol 12-myristate 13-acetate, reference compound]",,,MARCKS phosphorylation [3]: caused increased MARCKS phosphorylation
ALSTAR [p195],913 ± 199,0.7 ± 0.10,
ALSAER [p194],886 ± 211,0.6 ± 0.10,
AASTER [p192],1272 ± 172,0.7 ± 0.10,
ALSTEA [p196],926 ± 265,0.9 ± 0.10,
YGRKKRRQRRRGSGALSTER [TAT-GSG-ΨPDK],,,protection from I/R injury [1]: 73%
"GKTLVQ (not fully specified (C-terminus); also: TAT47-57 conjugated via disulfide to C-terminal Cys) [δV1-5, reference compound]",,,MARCKS phosphorylation [3]: increased MARCKS phosphorylation; MARCKS phosphorylation [4]: increased MARCKS phosphorylation
ΨPDK-Cs-sC-TAT: SEQ ID NO. 2 linked to SEQ ID NO. 33 (TAT) via a disulfide bond (chain 1 ALSTER; chain 2 YGRKKRRQRRR; not fully specified; disulfide bond linkage),,,protection from I/R injury [1]: 45%
ALST(p)ER [p197],803 ± 131,0.7 ± 0.10,"cardioprotection / biological activity in ex vivo I/R model (in words) [1]: None of the phosphorylated peptides (p197, 198, 199) affected cardioprotection"
ALS(p)TER [p198],1169 ± 293,0.9 ± 0.10,"cardioprotection / biological activity in ex vivo I/R model (in words) [1]: None of the phosphorylated peptides (p197, 198, 199) affected cardioprotection"
